In the supplement of paper PMC5908809:

Tests used:
[1] = test system: normal NK cells expanded with K562-aAPC; experiment: percent inhibition of viability; higher = more inhibition; details: 72 h, IL-2 2.5 ng/mL
Description: (§1)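 Drug sensitivity and resistance testing on K562-aAPC-expanded normal NK cells: 5 concentrations (10-fold steps over a 10,000-fold range), 72 h at 37 °C, viability by CellTiter-Glo normalised to DMSO and benzethonium chloride controls; DSS from the fitted curve.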

[2] = test system: normal primary NK cells, pool 3 (3 donors) (IL-2 2.5 ng/mL); experiment: as above; details: 72 h
[3] = test system: KHYG-1 (IL-2 2.5 ng/mL); experiment: as above; details: 72 h
[4] = test system: NK-92 (IL-2 2.5 ng/mL); experiment: as above; details: 72 h
[5] = test system: normal primary NK cells, pool 2 (3 donors) (IL-2 2.5 ng/mL); experiment: as above; details: 72 h
[6] = test system: YT (IL-2 2.5 ng/mL); experiment: as above; details: 72 h
[7] = test system: KAI3 (IL-2 2.5 ng/mL); experiment: as above; details: 72 h
[8] = test system: normal primary NK cells, pool 1 (3 donors) (IL-2 2.5 ng/mL); experiment: as above; details: 72 h
[9] = test system: SNK-6 (IL-2 2.5 ng/mL); experiment: as above; details: 72 h
[10] = test system: IMC-1 (IL-2 20 ng/mL); experiment: as above; details: 72 h
[11] = test system: DERL-7 (IL-2 2.5 ng/mL); experiment: as above; details: 72 h
[12] = test system: NKL (IL-2 2.5 ng/mL); experiment: as above; details: 72 h
[13] = test system: normal primary NK cells, pool 1 (3 donors), resting (IL-2 0 ng/mL); experiment: as above; details: 72 h
[14] = test system: NK-YS (IL-2 2.5 ng/mL); experiment: as above; details: 72 h
[15] = test system: normal NK cells expanded with K562-aAPC; experiment: drug sensitivity score (DSS) (DSS units); higher = more sensitive; extreme values may be limits of the assay; details: 72 h; IL-2 2.5 ng/mL
Description: as §1

[16] = test system: normal primary NK cells, pool 3 (3 donors) (IL-2 2.5 ng/mL); experiment: as above; details: 72 h
[17] = test system: KHYG-1 (IL-2 2.5 ng/mL); experiment: as above; details: 72 h
[18] = test system: NK-92 (IL-2 2.5 ng/mL); experiment: as above; details: 72 h
[19] = test system: normal primary NK cells, pool 2 (3 donors) (IL-2 2.5 ng/mL); experiment: as above; details: 72 h
[20] = test system: YT (IL-2 2.5 ng/mL); experiment: as above; details: 72 h
[21] = test system: KAI3 (IL-2 2.5 ng/mL); experiment: as above; details: 72 h
[22] = test system: normal primary NK cells, pool 1 (3 donors) (IL-2 2.5 ng/mL); experiment: as above; details: 72 h
[23] = test system: SNK-6 (IL-2 2.5 ng/mL); experiment: as above; details: 72 h
[24] = test system: IMC-1 (IL-2 20 ng/mL); experiment: as above; details: 72 h
[25] = test system: DERL-7 (IL-2 2.5 ng/mL); experiment: as above; details: 72 h
[26] = test system: NKL (IL-2 2.5 ng/mL); experiment: as above; details: 72 h
[27] = test system: normal primary NK cells, pool 1 (3 donors), resting (IL-2 0 ng/mL); experiment: as above; details: 72 h
[28] = test system: NK-YS (IL-2 2.5 ng/mL); experiment: as above; details: 72 h

COc1cc2c(Nc3ccc(Cl)c(Cl)c3F)ncnc2cc1OC[C@@H]1C[C@@H]2CN(C)C[C@@H]2C1 [XL-647] (max concentration tested 1000 nM)
percent inhibition of viability [%]
Details	0.1 nM	1 nM	10 nM	100 nM	1000 nM
[1]	-7	-6.81	-2.66	7.59	37.1
[2]	-9.94	18.6	6.02	-4.74	21.1
[3]	-6.79	-7.9	-4.38	-1	19.7
[4]	2.48	-1.64	0.32	10.1	56.2
[5]	-4.62	6.47	1.95	-3.8	39.6
[6]	-6.35	-3.87	-2.73	5.21	28.1
[7]	-2.77	-5.01	0.66	13.1	44
[8]	0.18	15.8	5.17	13.4	36.7
[9]	17.2	-16.8	-17.2	-22.1	3.73
[10]	-7	-0.32	0.43	-6.58	6.29
[11]	2.38	4.2	2.43	5.16	49.9
[12]	-12.1	-2.96	0.78	18.2	55.1
[13]	-0.45	21.2	8.11	17.6	64.4
[14]	-8.01	-7.74	-6.62	1.82	42.2

Details	drug sensitivity score
[15]	3.02
[16]	0.47
[17]	0.5
[18]	4.71
[19]	1.68
[20]	1.99
[21]	4.2
[22]	3.29
[23]	0
[24]	0
[25]	3.48
[26]	5.6
[27]	5.88
[28]	2.37

CC(C)C[C@@H](C(=O)N[C@H](C(=O)OC1CCCC1)c1ccccc1)[C@H](O)C(=O)NO [Tosedostat] (max concentration tested 10000 nM)
percent inhibition of viability [%]
Details	1 nM	10 nM	100 nM	1000 nM	10000 nM
[1]	-1.88	6.85	7.57	15.4	28.1
[2]	-8.47	-19.6	-9.22	2.66	28.9
[3]	-2.21	-0.34	2.84	38.9	56
[4]	-7.95	-5.73	1.42	28.5	39.5
[5]	-1.97	-1.61	3.93	27.9	53.1
[6]	-4.4	5.94	-1.61	16.7	64.4
[7]	-9.18	-2.01	1.91	5.58	19.7
[8]	0.7	-2.5	14.2	32.4	71.7
[9]	15.8	-24.2	-35	-26.7	-18.3
[10]	1.56	3.44	2.86	-8.8	34.8
[11]	0.91	28.1	38.8	57.2	60.4
[12]	2.1	17	15	11.9	77.3
[13]	-9.12	-11.9	19.5	68.8	83
[14]	1.05	7.39	20.1	32.9	43.8

Details	drug sensitivity score
[15]	2.81
[16]	1.63
[17]	7.83
[18]	5.36
[19]	6.04
[20]	6.11
[21]	1.15
[22]	8
[23]	0
[24]	1.21
[25]	18
[26]	6.28
[27]	15.1
[28]	8.33
